Reference: US20120059011A1, “PHARMACEUTICAL COMPOSITIONS OF COMBINATIONS OF DIPEPTIDYL PEPTIDASE-4 INHIBITORS WITH PIOGLITAZONE” (priority 2009, published 2012)
Structures can show the parent of a compound that is named as a salt.

Assay: chemical stability of pioglitazone HCl with lubricants (disproportionation to free base)
Assay type: physicochemical
Conditions: in contact with lubricants, such as magnesium stearate and sodium stearyl fumarate
Procedure: The pharmaceutical compositions of the present invention are prepared by wet processing methods. In one embodiment the pharmaceutical compositions are prepared by wet granulation methods, such as fluid bed granulation or high-shear granulation. In a class of this embodiment, the pharmaceutical compositions are prepared by fluid-bed granulation. Fluid bed granulation processing has the advantage of affording tablets with higher diametric strength. Further, wet processing methods utilizing an intragranular portion containing Sitagliptin phosphate monohydrate, Pioglitazone HCl, a binding agent, and optionally a disintegrant, enhance the chemical stability of Sitagliptin phosphate monohydrate and pioglitazone HCl. […] The fluid bed granulation method utilizing an intragranular portion containing Pioglitazone HCl, Sitagliptin phosphate monohydrate, a binding agent, and optionally a disintegrant, minimizes the disproportionation of Pioglitazone HCl to the pioglitazone free base.

**Q.** With `CCc1ccc(CCOc2ccc(CC3SC(=O)NC3=O)cc2)nc1` (racemic) [Pioglitazone HCl, [(±)-5-[[4-[2-(5-ethyl-2-pyridinyl)ethoxy]phenyl]-methyl]-2,4-]thiazolidinedione monohydrochloride] as the compound, how does the “disproportionation of Pioglitazone HCl to the Pioglitazone free base” value read?
**A.** The value was “react with lubricants”.
